The values below come from patent US20180030080A1, “Phosphoramidate nucleoside prodrug for treating viral diseases and cancer, processes for their preparation and their use” (ASAVI, LLC, priority 2016, published 2018).

pEC50, pIC50: −log10 of the molar value. Where two headings read alike, the source gives them in different places.

Series [1] concerns xenograft models of human pancreatic cancer. The following applies: in vivo; cited from earlier work.
Series [2] deals with wild-type HIV-1. Particulars: cited from earlier work.
Series [3] concerns HIV. Particulars: most potent and least cytotoxic analog; cited from earlier work.
In series [4] the test system is HBV wild-type. The following applies: cited from earlier work.
For series [5] the following is noted: 28-day toxicity studies in multiple species; cited from earlier work.
Series [6] relates to HBV lamivudine-entecavir resistant clone (L180M+M204V+S202G). The following applies: resistant mutant (L180M+M204V+S202G); cited from earlier work.
Series [7] relates to HCV replicon gT1a. Nature of the series: HCV replicon assay, genotype gT1a. The format is cell-based. The following applies: Hepatitis C virus, mean. As for the experimental part: (§1) Anti-HCV activity (EC50) and cytotoxicity (CC50) of prodrugs of general formula 1. The HCV replicon assay was used to determine the antiviral activity of chemotherapeutic agents of general formula 1 (test compounds). Sovaldi (PSI-7977) was used as the reference drug. The test cell line used in the HCV Replicon Assay was the human hepatoma cell line Huh7 incorporating the HCV replicons synthesized by an outside vendor. 96-well plates were seeded with cells at a density of 7.5×10^3 cells per well in 50 μl of assay media. The compound stock solution was made up freshly in an assay medium (DMEM 1×, Cellgro; cat. #10-013-CV) as a 2× stock. A total of 11 serial 3-fold dilutions of test compounds were prepared from the 2× stock in the assay media ranging from 20 nM-0.2 pM final concentrations. At least 4 hours after seeding the cells, compound treatment was initiated by adding 50 μl of compound dilution to the plates. […] The final DMSO concentration was 0.5%. Cells and inhibitors were incubated for 3 days at 37° C./5% CO2. The media was removed from the plates by gentle tapping. The cells were fixed with 100 μl 1:1 acetone:methanol for 1 minute, washed three times with PBS buffer, and then blocked with 150 μl/well 10% Fetal Bovine Serum (FBS) in PBS for 1 hour at room temperature. The cells were then washed three times with PBS buffer and incubated with 100 μl/well anti-hepatitis C core mAb (Affinity BioReagents; cat. # MA1-080, 1 mg/ml stock diluted 1:4,000 in 10% FBS-PBS) for 2 hours at 37° C. Then, the cells were washed three times with PBS and incubated with 100 μl/well HRP-Goat Anti-Mouse antibody (diluted 1:3.500 in 10% FBS-PBS) for 1 hour at 37° C. […] The reaction was stopped with 2N H2SO4 (100 μl/well), and the absorbance was measured at A490 X on a Victor^3 V 1420 multilabel counter (Perkin Elmer). The EC50 values were calculated for test compounds from the resulting best-fit equations determined by Xlfit software (Table 1).

The test system of series [8] is HCV replicon gT5a. Description: HCV replicon assay, genotype gT5a. Particulars: Hepatitis C virus, mean. The class given is cell-based. As to the method: as §1
Series [9] has as its system HCV replicon gT3a. Description: HCV replicon assay, genotype gT3a. Particulars: Hepatitis C virus, mean. The class given is cell-based. As for the experimental part:
as §1

The subject of series [10] is HCV replicon gT2a. Description: HCV replicon assay, genotype gT2a. The class given is cell-based. The following applies: Hepatitis C virus, mean. As for the experimental part:
Anti-HCV activity (EC50) and cytotoxicity (CC50) of prodrugs of general formula 1. The HCV replicon assay was used to determine the antiviral activity of chemotherapeutic agents of general formula 1 (test compounds). Sovaldi (PSI-7977) was used as the reference drug. The test cell line used in the HCV Replicon Assay was the human hepatoma cell line Huh7 incorporating the HCV replicons synthesized by an outside vendor. 96-well plates were seeded with cells at a density of 7.5×10^3 cells per well in 50 μl of assay media. The compound stock solution was made up freshly in an assay medium (DMEM 1×, Cellgro; cat. #10-013-CV) as a 2× stock. A total of 11 serial 3-fold dilutions of test compounds were prepared from the 2× stock in the assay media ranging from 20 nM-0.2 pM final concentrations. At least 4 hours after seeding the cells, compound treatment was initiated by adding 50 μl of compound dilution to the plates. The final concentrations of compound therefore ranged from 10 nM to 0.1 pM when diluted 1:1 in culture media. The final DMSO concentration was 0.5%. Cells and inhibitors were incubated for 3 days at 37° C./5% CO2. The media was removed from the plates by gentle tapping. The cells were fixed with 100 μl 1:1 acetone:methanol for 1 minute, washed three times with PBS buffer, and then blocked with 150 μl/well 10% Fetal Bovine Serum (FBS) in PBS for 1 hour at room temperature. The cells were then washed three times with PBS buffer and incubated with 100 μl/well anti-hepatitis C core mAb (Affinity BioReagents; cat. # MA1-080, 1 mg/ml stock diluted 1:4,000 in 10% FBS-PBS) for 2 hours at 37° C. Then, the cells were washed three times with PBS and incubated with 100 μl/well HRP-Goat Anti-Mouse antibody (diluted 1:3.500 in 10% FBS-PBS) for 1 hour at 37° C. […] The reaction was stopped with 2N H2SO4 (100 μl/well), and the absorbance was measured at A490 X on a Victor^3 V 1420 multilabel counter (Perkin Elmer). The EC50 values were calculated for test compounds from the resulting best-fit equations determined by Xlfit software (Table 1).

Series [11] has as its system HCV replicon gT1b. Nature of the series: HCV replicon assay, genotype gT1b. The class given is cell-based. The following applies: Hepatitis C virus. As for the experimental part:
Anti-HCV activity (EC50) and cytotoxicity (CC50) of prodrugs of general formula 1. The HCV replicon assay was used to determine the antiviral activity of chemotherapeutic agents of general formula 1 (test compounds). Sovaldi (PSI-7977) was used as the reference drug. The test cell line used in the HCV Replicon Assay was the human hepatoma cell line Huh7 incorporating the HCV replicons synthesized by an outside vendor. 96-well plates were seeded with cells at a density of 7.5×10^3 cells per well in 50 μl of assay media. The compound stock solution was made up freshly in an assay medium (DMEM 1×, Cellgro; cat. #10-013-CV) as a 2× stock. A total of 11 serial 3-fold dilutions of test compounds were prepared from the 2× stock in the assay media ranging from 20 nM-0.2 pM final concentrations. At least 4 hours after seeding the cells, compound treatment was initiated by adding 50 μl of compound dilution to the plates. […] The final DMSO concentration was 0.5%. Cells and inhibitors were incubated for 3 days at 37° C./5% CO2. The media was removed from the plates by gentle tapping. The cells were fixed with 100 μl 1:1 acetone:methanol for 1 minute, washed three times with PBS buffer, and then blocked with 150 μl/well 10% Fetal Bovine Serum (FBS) in PBS for 1 hour at room temperature. The cells were then washed three times with PBS buffer and incubated with 100 μl/well anti-hepatitis C core mAb (Affinity BioReagents; cat. # MA1-080, 1 mg/ml stock diluted 1:4,000 in 10% FBS-PBS) for 2 hours at 37° C. Then, the cells were washed three times with PBS and incubated with 100 μl/well HRP-Goat Anti-Mouse antibody (diluted 1:3.500 in 10% FBS-PBS) for 1 hour at 37° C. The cells were then washed three times with PBS and developed with an OPD solution, 100 μl/well (1 OPD tablet+12 ml citrate/phosphate buffer+5 μl 30% H2O2 per plate), for 30 minutes in the dark at room temperature. The reaction was stopped with 2N H2SO4 (100 μl/well), and the absorbance was measured at A490 X on a Victor^3 V 1420 multilabel counter (Perkin Elmer). The EC50 values were calculated for test compounds from the resulting best-fit equations determined by Xlfit software (Table 1).

Series [12] concerns HCV replicon gT4a. Description: HCV replicon assay, genotype gT4a. The class given is cell-based. Particulars: Hepatitis C virus, mean. As to the method:
as §1

Series [13] has as its system HIV. Particulars: in PBMCs, relative to TFV; cited from earlier work.
For series [14] the following is noted: in the clinic; cited from earlier work.
Series [15] concerns HCV replicon. Particulars: cited from earlier work.
Series [16] concerns Huh7. Nature of the series: Cytotoxicity in Huh7 cells (ATPLite). The format is cell-based, human. Particulars: at a concentration of 100 μM. As to the method:
The cytotoxicity of the test compounds was studied in parallel using the same cell line, Huh7. Cell viability was determined using the ATPLite Kit (Perkin-Elmer, Boston, USA), according to manufacturer's instructions. 96-well black/transparent bottom plates were seeded with cells at a density of 7.5×10^3 cells per well in 50 μl medium. After 18 hours, compound treatment was initiated by adding 50 μl of compound dilution into the plates. Each compound dilution was tested in triplicates. The cells and inhibitors were then incubated for 96 hours at 37° C./5% CO2. The plates were washed twice with PBS (0.2 ml/well), and then lysed by adding lysis buffer, 0.05 ml/well (all reagents were included with the ATPLite Kit). After rocking for 5 min on a rocking platform, substrate buffer was added (0.05 ml/well). After additional 5-min incubation, the plates were kept in dark for 10 min, and the luminescence was read using TopCount NXT (Packard, Perkin Elmer). CC50 values for all test compounds were determined using XLfit 4.1 software.

[17] abbreviates: GT1B, read-out: IC50 HCV gT1b 10% FBS (mean).
The mark [18] stands for this setting: gT1b, 40% NHS, mean, read-out: IC50 HCV gT1b 40% NHS (mean).

As to `C[C@H](NP(=O)(OC[C@H]1O[C@@H](n2ccc(N)nc2=O)C(F)(F)[C@@H]1O)Oc1ccccc1)C(=O)OCc1ccccc1` (stereo partly shown) [NUC-1031, Gemcitabin-5′-phosphoramidate], the tumor volume entry in [1] was “significantly reduced tumor volume”.
As to `CCOC(=O)[C@H](C)N[P@](=O)(OC[C@@H]1OC[C@H](n2cc(C)c(=O)[nH]c2=O)O1)Oc1ccc(Br)cc1` [DOT-phosphoramidate, D-dioxolane-thymine 5′-(4-bromophenylethyloxy-L-alanyl-phosphate)], in series [2], the “more potency relative to DOT” value was 75 fold.
As for `CCOC(=O)[C@H](C)N[P@](=O)(OC[C@@H]1OC[C@H](n2cnc3c(NC4CC4)ncnc32)O1)Oc1ccccc1` [dioxolane-A mono-phosphoramidate], the pEC50 in [3] is 7.07.
Turning to “2′-fluoro-6′-methylene-carbocyclic adenosine [FMCA]”, the pEC50 in series [4] (HBV wild-type) was 6.26.
In the case of `CC(C)OC(=O)[C@H](C)N[P@](=O)(CO[C@@H]1C=C(F)C(n2cnc3c(N)ncnc32)O1)Oc1ccccc1` (stereo partly shown) [GS-9131], the renal findings result in series [5] is given as “no significant renal findings”.
Take “2′-Fluoro-6′-methylene-carbocyclic adenosine phosphoramidate [5′-phosphoramidate of FMCA]”: the “more potent than FMCA” value in series [4] (against both the wild-type and resistant mutant) is on record as 10 fold. Besides, the pEC50 in series [6] is 7.27.
As to `C=CCOC(=O)[C@H](C)NP(=O)(OC[C@H]1O[C@@H](n2ccc(=O)[nH]c2=O)[C@](C)(F)[C@@H]1O)Oc1ccccc1` (stereo partly drawn) [1.2(9), allyl (S)-2-{[(2R,3R,4R,5R)-5-(2,4-dioxo-3,4-dihydro-2H-pyrimidin-1-yl)-4-fluoro-3-hydroxy-4-methyl-tetrahydro-furan-2-ylmethoxy]-phenoxy-phosphorylamino}-propanoate], the pIC50 was 7.27 in [7]; 6.84 in series [8]; 7.29 in [9]; 7.64 in series [10]; 7.54 in series [11] (setting [17]); 7.47 in [11] (setting [18]). Further, the negative logarithm of the IC50 (pIC50) in series [12] was 7.00.
On to `CC(C)OC(=O)[C@H](C)N[P@](=O)(CO[C@H](C)Cn1cnc2c(N)ncnc21)Oc1ccccc1` [TAF, (S)-Isopropyl 2-(((S)-((((R)-1-(6-amino-9H-purin-9-yl)propan-2-yl)oxy)methyl)(phenoxy)-phosphoryl)amino)propanoate], for which, in series [13], the “more potent than TFV” value is given as 400 fold.
Consider `COc1nc(N)nc2c1ncn2[C@@H]1O[C@H](COP(=O)(N[C@@H](C)C(=O)OCC(C)(C)C)Oc2cccc3ccccc23)[C@@H](O)[C@@]1(C)O` (stereo partly shown) [INX-08189], for which the cardiovascular toxicity entry in series [14] was “severe cardiovascular toxicity”. The pEC50 in [15] is 8.00.
As to `CC(C)OC(=O)[C@H](C)NP(=O)(OC[C@H]1O[C@@H](n2ccc(=O)[nH]c2=O)[C@](C)(F)[C@@H]1O)Oc1ccccc1` (stereo partly shown) [PSI-7851, reference compound], the pIC50 in series [7] was 6.99; in series [8], 6.40; in [9], 6.82; in series [10], 7.41; in series [11] (setting [17]) it was 7.21; in series [11] (setting [18]), 7.10. Besides, the pIC50 in series [12] is 6.46. In addition, the Cell death in series [16] is on record as 31%.
